Like-named read-outs stand apart in the source and are kept apart here. Marks after values point to notes of the source that are not given here. Blank lines part the entries; values can stand above or below the compound they belong to.
What was measured:
[1] = cited from earlier work; for Bioactivation / Enzyme: major enzyme(s) involved in the bioactivation (denoted as *) or detoxification of the drug: previous information; for Toxicity (mechanisms of toxicity): ref Ashrafian et al. [2007], Donato et al. [2009], Fromenty and Pessayre [1997], Rolo et al. [2000], Tolosa et al. [2012b]; for DILI category: ref Gustafsson et al. ([2014])
HepG2 cells [2] = conditions: human, 24 h
Experimental: (§1) For subculturing purposes, cells were detached by treatment with 0.25% trypsin/0.02% EDTA at 37 °C. For the adenovirus infection studies, cells were seeded in 96-well plates (5000 cells/well) and adenovirus-containing medium was added 48 h later. After 24 h, cells were transferred to the adenovirus-free medium and cultured for an additional 24-h period prior to the incubations performed with the test chemicals. To optimise the expression of the functional enzymes in the adenovirus-transduced HepG2 (Ad-HepG2) cells, different doses (MOI, multiplicity of infection, defined as plaque formation units per cell) of each adenovirus were tested.
(§2) The drugs included in the study were chosen based on previous information about their hepatotoxicity. Information on the potential mechanisms implicated in the toxicity of each compound and the major enzymes involved in their metabolism is summarised in Table 1. HepG2 or Ad-HepG2 (48 h post-infection) cells were exposed for 24 h to eight concentrations of the tested compounds. Each experimental condition was repeated independently three times (with three wells measured each time). The stock solutions of compounds were prepared in DMSO and were conveniently diluted in the culture medium to obtain the desired final concentrations. The final DMSO concentration in the culture medium was 0.5% (v/v), and the control cultures were treated with the same amount of solvent.
(§3) Following treatments, cells were simultaneously loaded with several fluorescent dyes to measure multiple biomarkers of cell toxicity. […] Information about the probes is summarised in Supplementary Table S2.
(§4) After incubating with dyes, cells were imaged by the Scan^R system (Olympus, Germany). Dyes were excited, and their fluorescence was monitored at the excitation and emission wavelengths at appropriate filter settings. The collected images were analysed using the Scan^R analysis module, which allows the simultaneous quantification of subcellular structures that are stained by different fluorescent probes.

[3] = test system: HepG2 cells transduced with AdCYP3A4; test: Cell viability (PI), IC50, AdCYP3A4-HepG2; assay type: cell-based; conditions: Homo sapiens, unit inferred, tested range in µM
Experimental: as §1, §2, §3, §4

[4] = ref Atienzar et al. ([2014]), Garside et al. ([2014]), Tolosa et al. ([2012b]); cited from earlier work
[5] = test system: HepG2 cells transduced with AdCYP2C19; test: Cell viability (PI), IC50, AdCYP2C19-HepG2; assay type: cell-based; conditions: Homo sapiens, unit inferred, tested range in µM
Experimental: as §1, §2, §3, §4

[6] = test system: HepG2 cells transduced with AdCYP3A4; test: HCS hepatotoxicity assay (MEC, TR), AdCYP3A4-HepG2; assay type: cell-based, human; conditions: 24 h; for TR: TR = 100 x Cmax/lowest MEC; for MEC Apoptosis / MEC Calcium / MEC MMP / MEC Mitochondrial superoxide / MEC ROS: unit not given, tested range in µM
[7] = test system: HepG2 cells transduced with AdCYP1A2; test: HCS hepatotoxicity assay (MEC, TR), AdCYP1A2-HepG2; assay type: cell-based, human; conditions: 24 h; for MEC Apoptosis / MEC Calcium / MEC MMP / MEC Mitochondrial superoxide / MEC ROS: unit inferred, tested range in µM; for TR: TR = 100 x Cmax/lowest MEC
Experimental: as §1, §2, §3, §4

HepG2 cells [8] = test: Cell viability (PI), IC50, control HepG2 cells; assay type: cell-based; conditions: Homo sapiens; control non-transduced HepG2; 24 h; unit inferred, tested range in µM; read-out: IC50 (cell viability), C
[9] = test system: HepG2 cells transduced with AdCYP2C19; test: HCS hepatotoxicity assay (MEC, TR), AdCYP2C19-HepG2; assay type: cell-based, human; conditions: 24 h; for TR: TR = 100 x Cmax/lowest MEC; for MEC Apoptosis / MEC Calcium / MEC MMP / MEC Mitochondrial superoxide / MEC ROS: unit inferred, tested range in µM
Experimental: as §1, §2, §3, §4

[10] = test system: HepG2 cells transduced with AdCYP1A2; test: Cell viability (PI), IC50, AdCYP1A2-HepG2; assay type: cell-based; conditions: Homo sapiens, unit inferred, tested range in µM
Experimental: as §1, §2, §3, §4

[11] = test system: HepG2 cells transduced with AdCYP2D6; test: Cell viability (PI), IC50, AdCYP2D6-HepG2; assay type: cell-based; conditions: Homo sapiens, unit inferred, tested range in µM
Experimental: as §1, §2, §3, §4

[12] = test system: HepG2 cells transduced with AdCYP2D6; test: HCS hepatotoxicity assay (MEC, TR), AdCYP2D6-HepG2; assay type: cell-based, human; conditions: 24 h; for TR: TR = 100 x Cmax/lowest MEC; for MEC Apoptosis / MEC Calcium / MEC Lipids / MEC MMP / MEC Mitochondrial superoxide / MEC ROS: unit inferred, tested range in µM
Experimental: as §1, §2, §3, §4

- MEC Calcium (HepG2 cells [2]): 500
- MEC MMP (HepG2 cells [2]): 500
- MEC Mitochondrial superoxide (HepG2 cells [2]): 500
- MEC ROS (HepG2 cells [2]): 500
- TR (HepG2 cells [2]): 1.2
- IC50 ([3]; ADV CYP3A4 x1, 24 h, read-out: IC50 (cell viability), ADV dose x1): 219 µM
- IC50 ([3]; ADV CYP3A4 x4, 24 h, read-out: IC50 (cell viability), ADV dose x4): 176 µM
- IC50 ([3]; ADV CYP3A4 x10, 24 h, read-out: IC50 (cell viability), ADV dose x10): 145 µM
- IC50 ([5]; ADV CYP2C19 x1, 24 h, read-out: IC50 (cell viability), ADV dose x1): 344 µM
- IC50 ([5]; ADV CYP2C19 x4, 24 h, read-out: IC50 (cell viability), ADV dose x4): 309 µM
- IC50 ([5]; ADV CYP2C19 x10, 24 h, read-out: IC50 (cell viability), ADV dose x10): 255 µM
- IC50 (HepG2 cells [8]): 398 µM
- IC50 ([10]; ADV CYP1A2 x1, 24 h, read-out: IC50 (cell viability), ADV dose x1): 384 µM
- IC50 ([10]; ADV CYP1A2 x4, 24 h, read-out: IC50 (cell viability), ADV dose x4): 261 µM
- IC50 ([10]; ADV CYP1A2 x10, 24 h, read-out: IC50 (cell viability), ADV dose x10): 248 µM
SMILES: CC(C)C(=O)Nc1ccc([N+](=O)[O-])c(C(F)(F)F)c1 [Flutamide]
- Bioactivation [1]: Yes
- Enzyme: major enzyme(s) involved in the bioactivation (denoted as *) or detoxification of the drug [1]: CYP1A2*, CYP2C19*, CYP3A4*
- Toxicity (mechanisms of toxicity) [1]: MI, OS
- DILI category [1]: Severe
- MEC Apoptosis (HepG2 cells [2]): 500 µM
- Cmax [4]: 6.2 µM
- TR ([6]; AdCYP 3A4 1x): 2.5
- MEC Apoptosis ([6]; AdCYP 3A4 1x): 500
- MEC Calcium ([6]; AdCYP 3A4 1x): 250
- MEC MMP ([6]; AdCYP 3A4 1x): 750
- MEC Mitochondrial superoxide ([6]; AdCYP 3A4 1x): 500
- MEC ROS ([6]; AdCYP 3A4 1x): 250
- TR ([6]; AdCYP 3A4 4x): 5.0
- MEC Apoptosis ([6]; AdCYP 3A4 4x): 250
- MEC Calcium ([6]; AdCYP 3A4 4x): 250
- MEC MMP ([6]; AdCYP 3A4 4x): 500
- MEC Mitochondrial superoxide ([6]; AdCYP 3A4 4x): 250
- MEC ROS ([6]; AdCYP 3A4 4x): 125
- TR ([6]; AdCYP 3A4 10x): 5.0
- MEC Apoptosis ([6]; AdCYP 3A4 10x): 125
- MEC Calcium ([6]; AdCYP 3A4 10x): 250
- MEC MMP ([6]; AdCYP 3A4 10x): 250
- MEC Mitochondrial superoxide ([6]; AdCYP 3A4 10x): 125
- MEC ROS ([6]; AdCYP 3A4 10x): 125
- MEC Apoptosis ([7]; AdCYP 1A2 1x): 250 µM
- MEC Calcium ([7]; AdCYP 1A2 1x): 500 µM
- MEC MMP ([7]; AdCYP 1A2 1x): 500 µM
- MEC Mitochondrial superoxide ([7]; AdCYP 1A2 1x): 75 µM
- MEC ROS ([7]; AdCYP 1A2 1x): 500 µM
- TR ([7]; AdCYP 1A2 4x): 12.4
- MEC Apoptosis ([7]; AdCYP 1A2 4x): 250 µM
- MEC Calcium ([7]; AdCYP 1A2 4x): 500 µM
- MEC MMP ([7]; AdCYP 1A2 4x): 500 µM
- MEC Mitochondrial superoxide ([7]; AdCYP 1A2 4x): 50 µM
- MEC ROS ([7]; AdCYP 1A2 4x): 500 µM
- TR ([7]; AdCYP 1A2 10x): 12.4
- MEC Apoptosis ([7]; AdCYP 1A2 10x): 125 µM
- MEC Calcium ([7]; AdCYP 1A2 10x): 50 µM
- MEC MMP ([7]; AdCYP 1A2 10x): 500 µM
- MEC Mitochondrial superoxide ([7]; AdCYP 1A2 10x): 50 µM
- MEC ROS ([7]; AdCYP 1A2 10x): 250 µM
- TR ([9]; AdCYP 2C19 1x): 2.5
- MEC Apoptosis ([9]; AdCYP 2C19 1x): 250 µM
- MEC Calcium ([9]; AdCYP 2C19 1x): 250 µM
- MEC MMP ([9]; AdCYP 2C19 1x): 250 µM
- MEC Mitochondrial superoxide ([9]; AdCYP 2C19 1x): 250 µM
- MEC ROS ([9]; AdCYP 2C19 1x): 250 µM
- TR ([9]; AdCYP 2C19 4x): 6.2
- MEC Apoptosis ([9]; AdCYP 2C19 4x): 250 µM
- MEC Calcium ([9]; AdCYP 2C19 4x): 100 µM
- MEC MMP ([9]; AdCYP 2C19 4x): 250 µM
- MEC Mitochondrial superoxide ([9]; AdCYP 2C19 4x): 250 µM
- MEC ROS ([9]; AdCYP 2C19 4x): 250 µM
- TR ([9]; AdCYP 2C19 10x): 12.4
- MEC Apoptosis ([9]; AdCYP 2C19 10x): 100 µM
- MEC Calcium ([9]; AdCYP 2C19 10x): 75 µM
- MEC MMP ([9]; AdCYP 2C19 10x): 250 µM
- MEC Mitochondrial superoxide ([9]; AdCYP 2C19 10x): 50 µM
- MEC ROS ([9]; AdCYP 2C19 10x): 50 µM

- MEC Calcium (HepG2 cells [2]): 10
- MEC Lipids (HepG2 cells [2]): 10
- MEC MMP (HepG2 cells [2]): 22.5
- MEC Mitochondrial superoxide (HepG2 cells [2]): 10
- MEC ROS (HepG2 cells [2]): 25
- TR (HepG2 cells [2]): 22
- IC50 ([11]; ADV CYP2D6 x1, 24 h, read-out: IC50 (cell viability), ADV dose x1): 24.4 µM
- IC50 ([11]; ADV CYP2D6 x4, 24 h, read-out: IC50 (cell viability), ADV dose x4): 25.5 µM
- IC50 ([11]; ADV CYP2D6 x10, 24 h, read-out: IC50 (cell viability), ADV dose x10): 27.4 µM
- IC50 (HepG2 cells [8]): 22.5 µM
SMILES: C1CCC(C(CC2CCCCN2)C2CCCCC2)CC1 (centres unmarked) [Perhexiline]
- Bioactivation [1]: No
- Enzyme: major enzyme(s) involved in the bioactivation (denoted as *) or detoxification of the drug [1]: CYP2D6
- Toxicity (mechanisms of toxicity) [1]: MI, ST
- DILI category [1]: Severe
- MEC Apoptosis (HepG2 cells [2]): 15 µM
- TR ([12]; AdCYP 2D6 1x): 17.6
- MEC Apoptosis ([12]; AdCYP 2D6 1x): 22.5 µM
- MEC Calcium ([12]; AdCYP 2D6 1x): 12.5 µM
- MEC Lipids ([12]; AdCYP 2D6 1x): > 27.5 µM
- MEC MMP ([12]; AdCYP 2D6 1x): 22.5 µM
- MEC Mitochondrial superoxide ([12]; AdCYP 2D6 1x): 22.5 µM
- MEC ROS ([12]; AdCYP 2D6 1x): > 27.5 µM
- TR ([12]; AdCYP 2D6 4x): 17.6
- MEC Apoptosis ([12]; AdCYP 2D6 4x): 25 µM
- MEC Calcium ([12]; AdCYP 2D6 4x): 12.5 µM
- MEC Lipids ([12]; AdCYP 2D6 4x): > 27.5 µM
- MEC MMP ([12]; AdCYP 2D6 4x): 27.5 µM
- MEC Mitochondrial superoxide ([12]; AdCYP 2D6 4x): 22.5 µM
- MEC ROS ([12]; AdCYP 2D6 4x): > 27.5 µM
- TR ([12]; AdCYP 2D6 10x): 17.6
- MEC Apoptosis ([12]; AdCYP 2D6 10x): 25 µM
- MEC Calcium ([12]; AdCYP 2D6 10x): 12.5 µM
- MEC Lipids ([12]; AdCYP 2D6 10x): > 27.5 µM
- MEC MMP ([12]; AdCYP 2D6 10x): > 27.5 µM
- MEC Mitochondrial superoxide ([12]; AdCYP 2D6 10x): 22.5 µM
- MEC ROS ([12]; AdCYP 2D6 10x): > 27.5 µM

Source: publication PMC5773651, “Customised in vitro model to detect human metabolism-dependent idiosyncratic drug-induced liver injury” (Archives of Toxicology, 2017)
